Consider 10 compounds from ChEMBL document CHEMBL1201862, “PubChem BioAssay data set” (2004).

Among the test systems are A549; ACHN; HCC 2998; K562; KM12; MOLT-4; NCI-H460; NCI-H522; OVCAR-4; RPMI-8226; SF-268; SK-MEL-28; SK-MEL-5; SK-OV-3; SNB-19; T47D; TK-10; UACC-257; UACC-62; UO-31.
Experiment in all cases: NCI-60 cell line screen, 48 h

SMILES strings stand for the structures.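 Exposure lasted 48 hours, with cells grown in 96-well plates and compounds tested at five concentrations. GI50 = concentration required for 50% inhibition of growth.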 Calls of active or inactive are those of the source. No stated cut-off is given here; in the data, active = GI50 up to about 1.1 µM and inactive = higher. Some results are limits rather than exact numbers.

In the case of `N#Cc1c(C#N)c(SSc2c(C#N)c(C#N)c(N)n2-c2cccc3ccccc23)n(-c2cccc3ccccc23)c1N`, the GI50 is 19.9 µM (inactive) in the test with A549; 5.15 µM (inactive) in the test on ACHN; 20.1 µM (inactive) with HCC 2998; 3.51 µM (inactive) in the test with K562; 41.6 µM (inactive) in the test on KM12; 2.63 µM (inactive) in the test with MOLT-4. Also, the GI50 in the test on NCI-H460 is 46.8 µM (inactive); with NCI-H522 it was 1.5 µM (inactive); in the test with OVCAR-4, 6.01 µM (inactive); with RPMI-8226, 2.76 µM (inactive); with SF-268, 14.4 µM (inactive); in the test with SK-MEL-28 it was 6.03 µM (inactive). Also, the GI50 was 20.2 µM (inactive) with SK-MEL-5; 24.1 µM (inactive) in the test on SK-OV-3; 20.9 µM (inactive) with SNB-19; 1.92 µM (inactive) in the test with T47D; 5.77 µM (inactive) with TK-10; 5.62 µM (inactive) with UACC-257. For the same compound, the results for the GI50 in the test on UACC-62 and in the test on UO-31 were 18 µM (inactive) and 2.34 µM (inactive), respectively.

In the case of `COc1cc2cccc(N)c2cc1OC`, the GI50 with A549, with ACHN, with HCC 2998, in the test on K562, in the test with KM12 and in the test with MOLT-4 was > 100 µM (inactive) in each case. Besides, the GI50 with NCI-H460, in the test with NCI-H522, in the test on OVCAR-4, in the test with RPMI-8226, in the test with SF-268 and with SK-MEL-28 was > 100 µM (inactive) each time. The GI50 was > 100 µM (inactive) in the test on SK-MEL-5; > 100 µM (inactive) in the test on SK-OV-3; > 100 µM (inactive) in the test on SNB-19; > 100 µM (inactive) in the test on T47D; > 26.3 µM (inactive) in the test with TK-10; > 100 µM (inactive) in the test with UACC-257. Moreover, the GI50 in the test with UACC-62 and with UO-31 was > 100 µM (inactive) in each case.

On to `N=c1nc(N)c2cc3c(N)nc(=N)c3cc12`, for which the GI50 in the test on A549 was > 100 µM (inactive); with ACHN it was 63.5 µM (inactive); in the test with HCC 2998 it was 31.3 µM (inactive); in the test with K562, 2.2 µM (inactive); in the test on KM12, 72.9 µM (inactive); in the test on MOLT-4, 4.07 µM (inactive). Besides, the GI50 with NCI-H460 was 22.5 µM (inactive); in the test with NCI-H522, 16 µM (inactive); in the test with OVCAR-4, 15.4 µM (inactive); in the test with RPMI-8226 it was 3.13 µM (inactive); in the test with SF-268 it was 2.62 µM (inactive); in the test with SK-MEL-28, 2.45 µM (inactive). The GI50 was 60.8 µM (inactive) in the test with SK-MEL-5; 28.6 µM (inactive) with SK-OV-3; 58.6 µM (inactive) with SNB-19; 8.51 µM (inactive) with T47D; 15.3 µM (inactive) in the test on TK-10; 3.37 µM (inactive) in the test with UACC-257. The GI50 in the test with UACC-62 was 3.72 µM (inactive); in the test with UO-31 it was 7.5 µM (inactive).

In the case of `Cc1cc(N(CCOS(C)(=O)=O)CCOS(C)(=O)=O)ccc1/C=N/c1ccc(-c2csc(-c3ccc(Br)cc3)n2)cc1`, the GI50 was 2.65 µM (inactive) in the test on A549; 0.518 µM (active) with ACHN; 6.58 µM (inactive) in the test on HCC 2998; 12.2 µM (inactive) in the test with K562; 13.3 µM (inactive) in the test with KM12; 2.38 µM (inactive) in the test with MOLT-4. For the same compound, the GI50 is 0.0483 µM (active) in the test with NCI-H460; 0.8 µM (active) with NCI-H522; 26.5 µM (inactive) in the test on OVCAR-4; 16 µM (inactive) with RPMI-8226; 9.95 µM (inactive) in the test on SF-268; 31.2 µM (inactive) in the test with SK-MEL-28. For the same compound, the GI50 was 14.2 µM (inactive) in the test with SK-MEL-5; 1.98 µM (inactive) in the test with SK-OV-3; 19.4 µM (inactive) with SNB-19; 10.9 µM (inactive) with T47D; 7.57 µM (inactive) in the test with TK-10; 18.9 µM (inactive) with UACC-257. Besides, the GI50 in the test with UACC-62 was 3.66 µM (inactive); in the test on UO-31, 10.2 µM (inactive).

`COc1cc(/C=C/C(=O)Oc2ccccc2)ccc1C(=O)O/C=C/c1ccccc1`: the GI50 is > 100 µM (inactive) in the test on A549; > 100 µM (inactive) in the test with ACHN; > 100 µM (inactive) with HCC 2998; > 100 µM (inactive) in the test on K562; > 100 µM (inactive) with KM12; > 93.3 µM (inactive) in the test with MOLT-4. The GI50 in the test on NCI-H460, in the test on NCI-H522, in the test on OVCAR-4, with RPMI-8226, in the test with SF-268 and in the test on SK-MEL-28 was > 100 µM (inactive) throughout. Moreover, the GI50 in the test on SK-MEL-5, in the test with SK-OV-3, in the test on SNB-19, with T47D, in the test with TK-10 and with UACC-257 was > 100 µM (inactive) in each case. The GI50 in the test on UACC-62 and in the test with UO-31 was > 100 µM (inactive) throughout.

As to `COc1cc(OC)c(/C=C\c2cc(/C=C/c3c(OC)cc(OC)cc3OC)c3ccccc3[n+]2C)c(OC)c1`, the GI50 was 3.94 µM (inactive) in the test on A549; 4.59 µM (inactive) in the test with ACHN; 3.48 µM (inactive) in the test on HCC 2998; 1.64 µM (inactive) with K562; 2.98 µM (inactive) in the test with KM12; 1.98 µM (inactive) in the test with MOLT-4. Moreover, the GI50 was 2.21 µM (inactive) in the test with NCI-H460; 1.96 µM (inactive) in the test with NCI-H522; 8.39 µM (inactive) in the test with OVCAR-4; 2 µM (inactive) with RPMI-8226; 2.52 µM (inactive) in the test on SF-268; 3.39 µM (inactive) in the test with SK-MEL-28. Besides, the GI50 in the test on SK-MEL-5 was 1.31 µM (inactive); in the test with SK-OV-3, 4.69 µM (inactive); in the test with SNB-19, 8.47 µM (inactive); with T47D, 2.37 µM (inactive); in the test on TK-10 it was 16 µM (inactive); with UACC-257 it was 2.92 µM (inactive). Moreover, the results for the GI50 with UACC-62 and in the test with UO-31 were 2.82 µM (inactive) and 7.16 µM (inactive), respectively.

In the case of `C/C(=N\NC(=O)Nc1ccccc1Cl)c1ccc(O)cc1`, the GI50 with A549 is > 100 µM (inactive); with ACHN it was > 100 µM (inactive); in the test with HCC 2998, > 100 µM (inactive); in the test with K562, 8.02 µM (inactive); with KM12, > 100 µM (inactive); in the test on MOLT-4 it was 7.85 µM (inactive). The GI50 in the test on NCI-H460 was 20.9 µM (inactive); in the test with NCI-H522 it was > 100 µM (inactive); with OVCAR-4, > 100 µM (inactive); with RPMI-8226, > 100 µM (inactive); in the test on SF-268 it was > 100 µM (inactive); with SK-MEL-28, > 100 µM (inactive). In addition, the GI50 in the test on SK-MEL-5, in the test with SK-OV-3, with SNB-19, in the test with T47D, in the test with TK-10 and with UACC-257 was > 100 µM (inactive) in each case. Further, the GI50 with UACC-62 and with UO-31 was > 100 µM (inactive) throughout.

Take `O=C(CCc1ccccc1)n1cccc1CO`: the GI50 in the test on A549, with ACHN, in the test on HCC 2998, in the test with K562, with KM12 and in the test on MOLT-4 was > 100 µM (inactive) each time. For the same compound, the GI50 in the test with NCI-H460, with NCI-H522, in the test with OVCAR-4, in the test with RPMI-8226, with SF-268 and with SK-MEL-28 was > 100 µM (inactive) in each case. Further, the GI50 in the test on SK-MEL-5 was > 100 µM (inactive); in the test with SK-OV-3, > 100 µM (inactive); in the test on SNB-19, > 100 µM (inactive); in the test with T47D it was 96.4 µM (inactive); in the test with TK-10 it was > 100 µM (inactive); in the test on UACC-257, > 100 µM (inactive). Besides, the GI50 in the test on UACC-62 and in the test with UO-31 was > 100 µM (inactive) each time.

Take `CN(C)Cc1cc(/N=N/c2cccc(Cl)c2)ccc1O`: the GI50 was 15.5 µM (inactive) in the test on A549; 3.29 µM (inactive) in the test with ACHN; 14.3 µM (inactive) in the test on HCC 2998; 3.27 µM (inactive) in the test with K562; 7.08 µM (inactive) with KM12; 13.2 µM (inactive) in the test on MOLT-4. In addition, the GI50 in the test with NCI-H460 was 12.8 µM (inactive); with NCI-H522, 11.7 µM (inactive); with OVCAR-4 it was 9.86 µM (inactive); in the test on RPMI-8226, 18.8 µM (inactive); in the test on SF-268, 11.6 µM (inactive); in the test with SK-MEL-28, 13.6 µM (inactive). For the same compound, the GI50 is 3.4 µM (inactive) with SK-MEL-5; 19.9 µM (inactive) in the test with SK-OV-3; 18.8 µM (inactive) in the test with SNB-19; 6.7 µM (inactive) with T47D; 10.6 µM (inactive) with TK-10; 14.5 µM (inactive) in the test on UACC-257. Also, the GI50 in the test on UACC-62 was 3.61 µM (inactive); in the test on UO-31, 8.32 µM (inactive).

Take `C[C@]12CC[C@H]3[C@@H](CC=C4C[C@@H](O)CC[C@@]43C)[C@@H]1C/C(=C\c1ccncc1)[C@@H]2O`: the GI50 with A549 was 19.7 µM (inactive); with ACHN, 16.9 µM (inactive); with HCC 2998 it was 31.8 µM (inactive); in the test on K562, 15.8 µM (inactive); with KM12, 15.9 µM (inactive); in the test with MOLT-4, 9.77 µM (inactive). The GI50 in the test with NCI-H460 is 15.1 µM (inactive); with NCI-H522, 16.3 µM (inactive); in the test with OVCAR-4, 12.2 µM (inactive); in the test on RPMI-8226, 9.91 µM (inactive); in the test with SF-268, 21.2 µM (inactive); with SK-MEL-28, 18.1 µM (inactive). For the same compound, the GI50 in the test on SK-MEL-5 is 8.51 µM (inactive); in the test on SK-OV-3 it was 28.3 µM (inactive); in the test with SNB-19, 21.2 µM (inactive); in the test with T47D, 12.1 µM (inactive); in the test on TK-10, 39.3 µM (inactive); in the test with UACC-257, 17.3 µM (inactive). For the same compound, the GI50 in the test on UACC-62 was 15.4 µM (inactive); in the test on UO-31, 27.1 µM (inactive).
